Measured values published in patent US20170143712A1, “Methods of Treating Cancers, Immune and Autoimmune Diseases, and Inflammatory Diseases Based on BTK Occupancy and BTK Resynthesis Rate” (Acerta Pharma B.V., priority 2014, published 2017).
Where two headings read alike, the source gives them in different places.

What was measured:
BTK = BTK (Homo sapiens, UniProt Q06187); test: BTK occupancy in PBMCs / peripheral blood B lymphocytes of healthy volunteers (active-site probe ELISA); assay type: in vivo; details: for receptor occupancy at 15 mg: human
BTK, sequence (Q06187 whole entry): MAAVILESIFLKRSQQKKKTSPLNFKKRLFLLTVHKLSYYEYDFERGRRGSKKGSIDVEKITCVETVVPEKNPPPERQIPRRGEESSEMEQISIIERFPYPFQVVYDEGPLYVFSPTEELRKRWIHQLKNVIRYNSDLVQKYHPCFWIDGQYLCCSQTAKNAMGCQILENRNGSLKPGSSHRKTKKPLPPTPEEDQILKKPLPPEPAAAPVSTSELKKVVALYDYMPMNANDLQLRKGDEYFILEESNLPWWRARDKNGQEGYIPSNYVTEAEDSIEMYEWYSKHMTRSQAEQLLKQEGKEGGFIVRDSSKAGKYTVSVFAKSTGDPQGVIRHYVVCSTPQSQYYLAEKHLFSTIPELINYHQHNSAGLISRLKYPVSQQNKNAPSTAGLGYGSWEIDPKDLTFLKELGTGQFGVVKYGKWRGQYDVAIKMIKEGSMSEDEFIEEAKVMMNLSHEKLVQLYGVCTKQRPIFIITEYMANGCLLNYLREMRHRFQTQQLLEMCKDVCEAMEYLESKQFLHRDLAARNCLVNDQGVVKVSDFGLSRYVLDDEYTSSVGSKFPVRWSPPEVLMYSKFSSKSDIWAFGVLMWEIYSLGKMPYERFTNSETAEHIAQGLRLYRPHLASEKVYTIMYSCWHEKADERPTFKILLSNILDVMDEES
Experimental: The presence of inactivated BTK in peripheral blood B lymphocytes was measured using a BTK active-site specific probe in an ELISA assay and expressed as a percentage of pre-study levels.
A Phase 1, single-center, open-label, single-treatment study in healthy volunteers was conducted to assess the BTK occupancy of Formula (II) after multiple-dose administration in healthy adult subjects under fasting conditions. The study primarily focused on characterizing the pharmacodynamics (PD) of Formula (II) by assessing the BTK occupancy profile of Formula (II) in peripheral blood mononuclear cells (PBMCs) and by measuring the expression of lymphocyte B activation markers, CD69 and CD86, during and after multiple oral dose administration of 15 mg daily in healthy subjects. As a secondary objective, the study evaluated the pharmacokinetic (PK) profile, safety, and tolerability after multiple-dose administrations of Formula (II) in the healthy subjects. Moreover, the study determined the effects of Formula (II) on peripheral blood T cells and myeloid-derived suppressor cells (MDSCs).
Forty, healthy adult, non-tobacco using men and women were enrolled in the study. A 15 mg Formula (II) dose (1×15 mg capsule) was administered once daily (QD) to each subject for 7 consecutive days (Days 1 to 7) with a washout period (6 days). PD blood samples were collected from each subject before dosing on Day 1, throughout the study, and up to 144 hours after dosing on Day 7 to characterize Formula (II) PD effects. PK sampling for Formula (II) was also collected before dosing on Day 1, throughout the study, and for 24 hours after dosing on Day 7. Additionally, potential Formula (II) safety issues were monitored through physical examination, vital sign measurements, 12 lead electrocardiograms (ECGs), AEs and clinical laboratory tests.
The occupancy of BTK by Formula (II) was measured in PBMCs with the aid of a biotin tagged Formula (II) analogue probe. The effect of Formula (II) on functional activation of B cells following BCR stimulation (measured via the phorphorylation of BTK and upregulation of CD69 and CD86 activation markers) was also evaluated.

psoriasis = test: Clinical observation of psoriasis in CLL/SLL study subjects; assay type: in vivo, human
Text: Clinical studies have shown that targeting the BCR signaling pathway by inhibiting BTK produces significant clinical benefit in patients with various types of leukemias and lymphomas. Formula (II) achieves significant oral bioavailability and potency, and has favorable preclinical characteristics, as described above. The purpose of this study is to evaluate the safety and efficacy of the second generation BTK inhibitor of Formula (II) in treating subjects with chronic lymphocytic leukemia (CLL) and small lymphocytic lymphoma (SLL). The primary objectives of the clinical study are as follows: […] The secondary objective of the clinical study is to evaluate tumor responses in patients treated with Formula (II). In addition, effects of Formula (II) on other patient characteristics, such as dermatoses, were evaluated for particular patients enrolled in the study. This study is a multicenter, open-label, nonrandomized, sequential group, dose escalation study. The following dose cohorts are evaluated: The study scheme is a sequential cohort escalation. Each cohort consists of six subjects. The sample size of the study is 24 to 36 subjects, depending on dose escalation into subsequent cohorts. Cohort 1 (N=6) consists of Formula (II), 100 mg QD for 28 days. Cohort 2 (N=6) consists of Formula (II), 175 mg QD for 28 days. Cohort 3 (N=6) consists of Formula (II), 250 mg QD for 28 days. Cohort 4 (N=6) consists of Formula (II), 350 mg QD for 28 days. Cohort 5 (N=6) consists of Formula (II), 450 mg QD for 28 days. Cohort 6 (N=6) consists of Formula (II), at a dose to be determined QD for 28 days. The dose level for Cohort 6 will be determined based on the safety and efficacy of Cohorts 1 to 5, and will not exceed 900 mg/day. […] Treatment with oral Formula (II) may be continued for greater than 28 days until disease progression or an unacceptable drug-related toxicity occurs. The dosage form and strength of Formula (II) used in the clinical study is a hard gelatin capsules prepared using standard pharmaceutical grade excipients (microcrystalline cellulose) and containing 25 mg of Formula (II) each. The color of the capsules is Swedish orange. The route of administration is oral (per os, or PO). […] They were treated over time with several systemic therapies including etanercept, adalimumab, and a 2010 clinical study of an experimental agent. They initially responded to etanerceptbut continued to have flares, and was under the care of a dermatologist prior to enrolling in the clinical study. Their treatment history included topical medications, and recently included Taclonex (calcipotriene/betamethasone diproprionate), without much improvement in skin lesions.

CC#CC(=O)N1CCC[C@H]1c1nc(-c2ccc(C(=O)Nc3ccccn3)cc2)c2c(N)nccn12 [Formula (II), (S)-4-(8-amino-3-(1-(but-2-ynoyl)pyrrolidin-2-yl)imidazo[1,5-a]pyrazin-1-yl)-N-(pyridin-2-yl)benzamide]
estimated half-life of occupied BTK (BTK resynthesis t1/2) (BTK; 15 mg QD, Days 1 and 2, initial post-dose rate): 20 h
modeled rate of BTK resynthesis (t1/2) (BTK; after 7 days dosing with 15 mg, and after a 25 mg BID dose): 119 h
estimated half-life of occupied BTK (BTK resynthesis t1/2) (BTK; after discontinuation of 15 mg QD x 7 days at steady state, later rate): 119 h
modeled rate of BTK resynthesis (t1/2) (BTK; early doses of 15 mg QD, or a single 25 mg QD dose): 20 h
receptor occupancy at 15 mg (BTK; 15 mg QD for 7 days, read-out: peak BTK occupancy at steady state): > 90%
receptor occupancy at 15 mg (BTK; 15 mg QD, Days 1 and 2, read-out: BTK target occupancy at the end of the dosing interval): ~60%
Psoriasis Area and Severity Index achieved (PASI90) (psoriasis; Subject 1, CLL patient with severe psoriasis, 10 month visit): 90%
serum IL-6, MIP-1α, MCP-1β, TNFA, TARC, CXCLS, CD40L, TRAIL, EGF, CXCL1 relative to baseline (psoriasis; Subject 1, Day 28 of treatment): decreased
psoriatic skin disease (psoriasis; Subject 1, by Cycle 10 (10 months on treatment)): their skin was clear
moderate-to-severe plaque psoriasis (psoriasis; Subject 2, after initiation of treatment): cleared quickly
